# Data from patent publication US20170189504A1, “NOVEL PEPTIDES AND COMBINATION OF PEPTIDES FOR USE IN IMMUNOTHERAPY AGAINST VARIOUS CANCERS” (immatics biotechnologies GmbH, priority 2015, published 2017).
# Tested on: HLA-A*02
# Test: MHC binding assay, UV-ligand exchange with β2m ELISA, HLA-A*02 (Table 20)
# Set-up: species or system human
# Settings: binding to HLA-A*02 ranged by peptide exchange yield (UV-ligand exchange, β2m ELISA)
# Source text: Candidate peptides for T cell based therapies according to the present invention were further tested for their MHC binding capacity (affinity). The individual peptide-MHC complexes were produced by UV-ligand exchange, where a UV-sensitive peptide is cleaved upon UV-irradiation, and exchanged with the peptide of interest as analyzed. Only peptide candidates that can effectively bind and stabilize the peptide-receptive MHC molecules prevent dissociation of the MHC complexes. To determine the yield of the exchange reaction, an ELISA was performed based on the detection of the light chain ((β2m) of stabilized MHC complexes. The assay was performed as generally described in Rodenko et al. (Rodenko et al., 2006).
# 96 well MAXISorp plates (NUNC) were coated over night with 2 ug/ml streptavidin in PBS at room temperature, washed 4× and blocked for 1 h at 37° C. in 2% BSA containing blocking buffer. Refolded HLA-A*02:01/MLA-001 monomers served as standards, covering the range of 15-500 ng/ml. Peptide-MHC monomers of the UV-exchange reaction were diluted 100 fold in blocking buffer. Samples were incubated for 1 h at 37° C., washed four times, incubated with 2 ug/ml HRP conjugated anti-β2m for 1 h at 37° C., washed again and detected with TMB solution that is stopped with […]. Absorption was measured at 450 nm. Candidate peptides that show a high exchange yield (preferably higher than 50%, most preferred higher than 75%) are generally preferred for a generation and production of antibodies or fragments thereof, and/or T cell receptors or fragments thereof, as they show sufficient avidity to the MHC molecules and prevent dissociation of the MHC complexes.
row,Substance,Peptide exchange
1,45 (SLTEVSLPL; listed as Homo sapiens) [compound 45],+++ (50%-75% = +++)
2,65 (SVVPDVRSV; listed as Homo sapiens) [compound 65],++ (20%-49% = ++)
3,32 (VQLDSIEDLEV; listed as Homo sapiens) [compound 32],+++ (50%-75% = +++)
4,240 (YMGEEKLIASV; listed as Homo sapiens) [compound 240],+++ (50%-75% = +++)
5,112 (SLGKFTFDV; listed as Homo sapiens) [compound 112],++++ (≧75% = ++++)
6,265 (NTCPYVHNI; listed as Homo sapiens) [compound 265],+++ (50%-75% = +++)
7,49 (ALNIATHVL; listed as Homo sapiens) [compound 49],+++ (50%-75% = +++)
8,135 (HLSTIIHEA; listed as Homo sapiens) [compound 135],+++ (50%-75% = +++)
9,234 (LLSPHNPAL; listed as Homo sapiens) [compound 234],+++ (50%-75% = +++)
10,16 (YTLDIPVLFGV; listed as Homo sapiens) [compound 16],++++ (≧75% = ++++)
11,39 (HLLEGSVGV; listed as Homo sapiens) [compound 39],+++ (50%-75% = +++)
12,50 (ILFHGVFYA; listed as Homo sapiens) [compound 50],+++ (50%-75% = +++)
13,77 (TLIDEQDIPLV; listed as Homo sapiens) [compound 77],+++ (50%-75% = +++)
14,58 (YLLPLLPAL; listed as Homo sapiens) [compound 58],+++ (50%-75% = +++)
15,122 (GVVDPVHGV; listed as Homo sapiens) [compound 122],++ (20%-49% = ++)
16,266 (YAIGLVMRL; listed as Homo sapiens) [compound 266],+++ (50%-75% = +++)
17,89 (QLAPVFQRV; listed as Homo sapiens) [compound 89],++ (20%-49% = ++)
18,10 (GIAGSLKTV; listed as Homo sapiens) [compound 10],+++ (50%-75% = +++)
19,70 (LLLGDSALYL; listed as Homo sapiens) [compound 70],+++ (50%-75% = +++)
20,245 (SLLDLPLSL; listed as Homo sapiens) [compound 245],++++ (≧75% = ++++)

row,Substance,Peptide exchange
1,156 (ILGDLSHLL; listed as Homo sapiens) [compound 156],+++ (50%-75% = +++)
2,62 (ALNPELVQA; listed as Homo sapiens) [compound 62],++ (20%-49% = ++)
3,13 (ALMAMLVYV; listed as Homo sapiens) [compound 13],++ (20%-49% = ++)
4,46 (SQFPLPLAV; listed as Homo sapiens) [compound 46],++ (20%-49% = ++)
5,124 (KVMATIEKV; listed as Homo sapiens) [compound 124],++ (20%-49% = ++)
6,262 (FMVDKAIYL; listed as Homo sapiens) [compound 262],+++ (50%-75% = +++)
7,75 (AVIKFLELL; listed as Homo sapiens) [compound 75],+++ (50%-75% = +++)
8,241 (KTIQQLETV; listed as Homo sapiens) [compound 241],++ (20%-49% = ++)
9,264 (KLFPQETLFL; listed as Homo sapiens) [compound 264],+++ (50%-75% = +++)
10,80 (KLYEADFVL; listed as Homo sapiens) [compound 80],++ (20%-49% = ++)
11,244 (YLLEKNRVV; listed as Homo sapiens) [compound 244],++ (20%-49% = ++)
12,107 (LLVPTSGIYFV; listed as Homo sapiens) [compound 107],+++ (50%-75% = +++)
13,257 (GLYTDPCGV; listed as Homo sapiens) [compound 257],++++ (≧75% = ++++)
14,129 (RLQDILWFL; listed as Homo sapiens) [compound 129],++++ (≧75% = ++++)
15,63 (SQIPAQPSV; listed as Homo sapiens) [compound 63],++ (20%-49% = ++)
16,59 (KLLDPQEFTL; listed as Homo sapiens) [compound 59],+++ (50%-75% = +++)
17,254 (KLQGKLPEL; listed as Homo sapiens) [compound 254],++ (20%-49% = ++)
18,67 (TLLQRLTEV; listed as Homo sapiens) [compound 67],+++ (50%-75% = +++)
19,9 (FLVDGSYSI; listed as Homo sapiens) [compound 9],+++ (50%-75% = +++)
20,243 (FMADDIFSV; listed as Homo sapiens) [compound 243],+++ (50%-75% = +++)

row,Substance,Peptide exchange
1,263 (VLLSEQGDVKL; listed as Homo sapiens) [compound 263],++ (20%-49% = ++)
2,66 (KLIFSVEAV; listed as Homo sapiens) [compound 66],+++ (50%-75% = +++)
3,127 (KLDGNELDL; listed as Homo sapiens) [compound 127],+++ (50%-75% = +++)
4,104 (ALISWQPPRA; listed as Homo sapiens) [compound 104],+++ (50%-75% = +++)
5,37 (ILAPFSVDL; listed as Homo sapiens) [compound 37],+++ (50%-75% = +++)
6,47 (ALLERGELFV; listed as Homo sapiens) [compound 47],+++ (50%-75% = +++)
7,74 (TLFGYSVVL; listed as Homo sapiens) [compound 74],+++ (50%-75% = +++)
8,109 (SLDPSVTHL; listed as Homo sapiens) [compound 109],++ (20%-49% = ++)
9,22 (FVDPNTQEKV; listed as Homo sapiens) [compound 22],++ (20%-49% = ++)
10,121 (FTIFRTISV; listed as Homo sapiens) [compound 121],+++ (50%-75% = +++)
11,55 (SLATKIVEA; listed as Homo sapiens) [compound 55],+++ (50%-75% = +++)
12,238 (GLYERPTAA; listed as Homo sapiens) [compound 238],++ (20%-49% = ++)
13,85 (VLNDILVRA; listed as Homo sapiens) [compound 85],+++ (50%-75% = +++)
14,147 (YLMDDTVEI; listed as Homo sapiens) [compound 147],++++ (≧75% = ++++)
15,154 (RLLGTEFQV; listed as Homo sapiens) [compound 154],+++ (50%-75% = +++)
16,100 (ALLGMIIVGV; listed as Homo sapiens) [compound 100],+ (<20% = +)
17,117 (KMPDVELFV; listed as Homo sapiens) [compound 117],+++ (50%-75% = +++)
18,126 (QMFQYFITV; listed as Homo sapiens) [compound 126],++++ (≧75% = ++++)
19,41 (ALFENTPKA; listed as Homo sapiens) [compound 41],++ (20%-49% = ++)
